Results taken from patent publication US11419902B2, “Compositions comprising bacterial strains” (4D Pharma Research Limited, priority 2018, dated 2022).

Tests used:
SH-SY5Y cells = type: cell-based
Description: SH-SY5Y cells were plated at a seeding density of 10,000 cells/well, 24 hrs later cells were treated in 100 ul of 1% FBS growth media with different concentrations (express as percentage v/v) of cell-free bacterial supernatants from stationary phase cultures for 22 h. Thereafter 10 μl of MTT solution was added and cells were incubated in CO2 incubator for 4 h, at the end of this time 100 μl of isopropanol with 0.04 HCL was added to each well. The absorbance was measured at 560 nm wavelength and a reference wavelength of 655 nm. MTT assay kit was purchased from Merck Millipore (Cat n. CT01).

MAP2 [1] = assay: MAP2 gene expression in SKMEL2 cell line (qPCR); type: cell-based; conditions: SKMEL2, relative to both negative controls (cell line only, and YCFA+)
Description: Cells were plated in 12-well plates at density of 2×10^5 cells/well. After 24 h cells were treated with either DMSO or Vemurafenib (662005; EMD Millipore; VEMU; SKMEL28, SKMEL31, 451Lu, HT29 (1 μM) SKMEL2 (10 μM) or Azacytidine-C (A3656; Sigma Aldrich; AzaC; 5 μg/ml) or both drugs (VEMU+Aza) together, in presence of 10% bacteria supernatants or absence of it (YCFA+). Total RNA was extracted using the RNeasy mini kit (Qiagen, Manchester, UK) according to the manufacturer's instructions, and the RNA concentration was determined by spectrophotometer at 260/280 nm (NanoDrop ND-1000; Thermo Fisher Scientific, Loughborough). For mRNA expression analysis, cDNA was prepared from 2000 ng of total RNA using the High-Capacity cDNA reverse transcription kit (Thermo Fisher, Loughborough) according to the manufacturer's instructions. The reverse transcription reactions were performed in a thermocycler (Biometra, Germany) at 25° C. for 10 min, 37° C. for 120 min, and 85° C. for 5 min Resulting cDNA was amplified in duplicates by the SYBR-Green PCR assay, and products were detected on QuantStudio 6 flex real-time PCR machine (Applied Biosystems, UK) using a standardised profile (initial denaturation of 95° C. for 10 minutes, followed by 40 cycles of 10 seconds of denaturation at 95° C. and 30 seconds of annealing/extension at 65° C.). […]

[2] = system: ERK signalling (phosphorylated ERK1 and 2/total ERK); assay: ERK signalling in SKMEL31 cell line (Western blot); type: cell-based; conditions: SKMEL31, relative to the negative control (YFCA+)
Description: Following 24 h treatment with the appropriate drugs either in presence of 10% bacterial supernatant or absence (YCFA+), protein extracts were obtained by lysing cells in RIPA buffer (R0278; Sigma Aldrich) supplemented with protease inhibitors (cOmplete Protease Inhibitor Cocktail Tablets; Roche, Switzerland) and 1 mM/L sodium orthovanadate, 0.5 mM/L PMSF. Protein quantification was done by the BCA protein assay. Equal amounts of total protein (20 μg/lane) were then separated by SDS-PAGE on 4-15% gradient gel (BioRad) and transferred to polyvinylidene difluoride (PVDF) membranes (Thermo Fisher Scientific, Loughborough). […]
Proteins of interest were detected with the appropriate HRP-conjugated secondary antibody (1:10,000, Thermo Fisher Scientific, Loughborough), developed with the ECL Western blotting Super Signal PicoPlus substrate (34577; Thermo Fisher Scientific, Loughborough), and visualised in Chemidoc XRS Imager (BioRad).
The effects of the following treatments were assessed on the SKMEL31 melanoma cell line (heterozygous for BRAF V600E): (1) MRx0029; (2) Vemurafenib (VEMU) in YFCA+ medium; (3) VEMU and MRx0029; (4) Azacytidine-C (Aza-c) in YFCA+ medium; (5) Aza-c and MRx0029; (6) VEMU, Aza-c and MRx0029.

MAP2 [3] = assay: MAP2 expression in SH-SY5Y cells (qPCR, Example 22); type: cell-based; conditions: 10% bacterial supernatants 17 h, vs negative control and media control
Description: SH-SY5Y were plated in 6 well plates at a density of 0.5×10^6 cells. After 24 h, cells were treated in differentiation medium (growth medium containing 1% FBS) with 10% bacterial supernatants or YCFA+ for 17 h. Cells were collected, and total RNA was isolated according to the RNeasy mini kit protocol (Qiagen). cDNA was made using the High Capacity cDNA reverse transcription kit (Applied Biosystems). Gene expression was measured by qPCR. GAPDH was used as internal control. Fold change was calculated according to the 2^(−ΔΔct) method. Primer sets used are listed as SEQ ID NOs: 2, 3, 4 and 5.

NF-κB-Ap1 promoter = assay: NF-κB promoter activation in HEK-TLR4 reporter cells (SEAP); type: cell-based, human; conditions: 10% supernatant 22 h, on its own (without LPS)
Description: HEK293-Blue reporter cells stably expressing human TLR4 (HEK-TLR4), were cultured according to the manufacturer's instructions. Briefly, HEK-TLR4 cells were maintained in DMEM 4.5 g/L D-glucose supplemented with 10% (v/v) heat-inactivated FBS, 4 mM L-Glutamine, 100 U/ml penicillin, 100 μg/ml streptomycin, 100 μg/ml normocin, 1×HEK-Blue selection media.
Briefly, cells were washed with PBS, dissociated in PBS and collected in growth media. Cells were plated in 96-well plates at a density of 25,000 cells/well. To evaluate the effect of bacteria strains on LPS inducing NF-κB promoter activation, cells were treated with 10 ng/ml LPS in presence or absence of 10% supernatants (isolated as described above) and incubated in a CO2 incubator. Treatments proceeded for 22 h at 37° C. and 5% CO2, after which the detection of Secreted Embryonic Alkaline Phosphatase (SEAP) activity from cell culture supernatant was performed using QUANTI-blue solution according to manufacturer's instructions. Briefly, 20 μl of cell-free supernatant was collected and analysed for the presence of SEAP by mixing with 200 μl of sterile-filtered QUANTI-Blue detection media. After 2 h incubation at 37° C., optical density was measured at 655 nm on a microplate reader (iMark microplate, Bio-Rad).

Question: With Megasphaera massiliensis MRx0029 as the substance, how does the “reduction of cell viability” value (SH-SY5Y cells) read?
Answer: approximately 70%

Question: What about the cell viability (SH-SY5Y cells; undifferentiated neuroblastoma cells, MRx0029 at 5% or 10%) of the same substance?
Answer: significant, dose-dependent decrease in cell viability

Question: And the MAP2 gene expression (MAP2 [1])?
Answer: increased MAP2 gene expression

Question: And the ERK signalling [2]?
Answer: reduced ERK signalling

Question: And the MAP2 expression (MAP2 [3])?
Answer: statistically-significant increase of MAP2 expression

Question: What about the NF-κB-Ap1 promoter activation (NF-κB-Ap1 promoter) of the same substance?
Answer: induced NF-κB-Ap1 promoter activation
